In US20240358625A1, “STABILIZATION OF MYCOSPORINE-LIKE AMINO ACIDS” (NAGASE & CO., LTD., priority 2021, published 2024):

Legend:
Assay type in all cases: physicochemical
[1] = Influence of bases constituting nucleic acids on the stability of MGA (residual rate); conditions: 0.1% MGA, pH 7.5, 60° C. for 3 days; adenine 0.01%, guanine, cytosine, uracil, thymine 0.2%
Protocol: The influence of bases (adenine, guanine, cytosine, uracil, and thymine) constituting nucleic acids on the stability of MGA and MG was investigated. A 0.1% MGA solution (adjusted to pH 7.5 with 0.1M phosphate buffer) each containing adenine (0.01%), guanine (0.2%), cytosine (0.2%), uracil (0.2%), or thymine (0.2%) was prepared. A 0.1% MG solution (adjusted to pH 7.5 with 0.1M phosphate buffer) each containing adenine (0.01%), cytosine (0.2%), uracil (0.2%), or thymine (0.2%) was prepared. After these solutions were left at 60° C. for 3 days for MGA, 20 days and 49 days for MG, the amounts of MGA and MG were measured to determine the residual rate.

[2] = Effect of 4-DG ratio on stabilizing MG and on coloring of the MG solution; conditions: MG 0.1%, 4-DG ratio 1.5 to 11.1 parts by weight
Protocol: The effect of 4-DG on stabilizing MG was investigated. Solutions at pH 7 (in 0.1M phosphate buffer) containing various ratios of 4-DG to MG (0.1%) were prepared, and the amount of MG after standing at 60° C. for 57 days was measured. Then, the MG residual rate was determined. Additionally, the absorbance (400 nm) of the solution was measured over time during the experiment period.

[3] = Influence of pH on the stability of MG in solution and coloring of the MG solution
Protocol: Influence of pH on the stability of MG in a solution and the coloring of an MG solution were investigated. Adjustment of the solution to each pH was performed using 0.1 M phosphate buffer and phosphoric acid and NaOH as necessary. The MG concentration in the solution was 0.1%. MG solutions of each pH were prepared and left at 60° C. for 4 days, and then the amount of MG and the absorbance (400 nm) of the solutions were measured. The MG residual rate was determined by comparing with the amount at the start of the experiment.

[4] = weakly acidic to weakly alkaline conditions, 60° C. for 4 days

SMILES	stabilizing effect on MGA [1]	residual rate of MG ([2]; pH 7, 60° C. for 57 days)	absorbance (400 nm) of the solution ([2]; pH 7, 60° C., 57th day)	MG residual rate ([3]; 0.1% MG, 0.1 M phosphate buffer, pH 5.4 to 8.8, 60° C. for 4 days)	absorbance (400 nm) of the solution ([3]; 0.1% MG, pH 5.4 to 8.0, 60° C. for 4 days)	coloring of the MG solution [3, 4]	stability of MG [3, 4]
Nc1nc2nc[nH]c2c(=O)[nH]1 [guanine]	confirmed	–	–	–	–	–	–
COC1=C(NCC(=O)O)C[C@@](O)(CO)CC1=O [MG, mycosporine-glycine]	–	≥ 74%	≤ 0.17	≥ 88%	≤ 0.018	suppressed	stabilized
